ChEMBL document CHEMBL3734678, “Protective effect and mechanism of action of lupane triterpenes from Cornus walteri in cisplatin-induced nephrotoxicity” (2015)
Active and inactive are the calls of the source. The rule behind the calls is not given here.

system: LLC-PK1; assay: Renoprotective activity in pig LLC-PK1 cells assessed as reduction in cisplatin-induced progressive condensation at 125 uM preincubated for 2 hrs followed by cisplatin challenge for 24 hrs by phase-contrast microscopic analysis; assay type: functional, cell-based; conditions: Sus scrofa

SMILES | Activity
C=C(C)[C@@H]1CC[C@]2(C)CC[C@]3(C)[C@H](CC[C@@H]4[C@@]5(C)CC[C@H](O)C(C)(C)[C@@H]5CC[C@]43C)[C@@H]12 [LUPEOL] | Active
C=C(C)[C@@H]1CC[C@]2(CO)CC[C@]3(C)[C@H](CC[C@@H]4[C@@]5(C)CC[C@H](OC(C)=O)C(C)(C)[C@@H]5CC[C@]43C)[C@@H]12 | Active
C=C(C)[C@@H]1CC[C@]2(C(=O)O)CC[C@]3(C)[C@H](CC[C@@H]4[C@@]5(C)CC[C@H](O)C(C)(C)[C@@H]5CC[C@]43C)[C@@H]12 [BETULINIC ACID] | Active
C=C(C=O)[C@@H]1CC[C@]2(C(=O)O)CC[C@]3(C)[C@H](CC[C@@H]4[C@@]5(C)CC[C@H](O)C(C)(C)[C@@H]5CC[C@]43C)[C@@H]12 | Active

system: LLC-PK1; assay: Renoprotective activity in pig LLC-PK1 cells assessed as inhibition of cisplatin-induced cleaved caspase-3 expression at 125 uM preincubated for 2 hrs followed by cisplatin challenge for 24 hrs by western blot analysis; assay type: functional, cell-based; conditions: Sus scrofa

SMILES | inhibition
C=C(C)[C@@H]1CC[C@]2(C)CC[C@]3(C)[C@H](CC[C@@H]4[C@@]5(C)CC[C@H](O)C(C)(C)[C@@H]5CC[C@]43C)[C@@H]12 [LUPEOL] | Active
C=C(C)[C@@H]1CC[C@]2(CO)CC[C@]3(C)[C@H](CC[C@@H]4[C@@]5(C)CC[C@H](OC(C)=O)C(C)(C)[C@@H]5CC[C@]43C)[C@@H]12 | Active
C=C(C)[C@@H]1CC[C@]2(C(=O)O)CC[C@]3(C)[C@H](CC[C@@H]4[C@@]5(C)CC[C@H](O)C(C)(C)[C@@H]5CC[C@]43C)[C@@H]12 [BETULINIC ACID] | Active
C=C(C=O)[C@@H]1CC[C@]2(C(=O)O)CC[C@]3(C)[C@H](CC[C@@H]4[C@@]5(C)CC[C@H](O)C(C)(C)[C@@H]5CC[C@]43C)[C@@H]12 | Active

system: LLC-PK1; assay: Inhibition of cisplatin-induced JNK phosphorylation in pig LLC-PK1 cells at 125 uM preincubated for 2 hrs followed by cisplatin challenge for 24 hrs by western blot analysis; assay type: cell-based; conditions: Sus scrofa

SMILES | inhibition
C=C(C)[C@@H]1CC[C@]2(C)CC[C@]3(C)[C@H](CC[C@@H]4[C@@]5(C)CC[C@H](O)C(C)(C)[C@@H]5CC[C@]43C)[C@@H]12 [LUPEOL] | Active
C=C(C)[C@@H]1CC[C@]2(CO)CC[C@]3(C)[C@H](CC[C@@H]4[C@@]5(C)CC[C@H](OC(C)=O)C(C)(C)[C@@H]5CC[C@]43C)[C@@H]12 | Active
C=C(C)[C@@H]1CC[C@]2(C(=O)O)CC[C@]3(C)[C@H](CC[C@@H]4[C@@]5(C)CC[C@H](O)C(C)(C)[C@@H]5CC[C@]43C)[C@@H]12 [BETULINIC ACID] | Active
C=C(C=O)[C@@H]1CC[C@]2(C(=O)O)CC[C@]3(C)[C@H](CC[C@@H]4[C@@]5(C)CC[C@H](O)C(C)(C)[C@@H]5CC[C@]43C)[C@@H]12 | Active

system: LLC-PK1; assay: Renoprotective activity in pig LLC-PK1 cells assessed as reduction in cisplatin-induced toxicity at 250 uM preincubated for 2 hrs followed by cisplatin challenge for 24 hrs by MTT assay; assay type: functional, Sus scrofa; parameters: scale not given: the % may be the effect or the level left; conditions: not given

SMILES | Activity
C=C(C)[C@@H]1CC[C@]2(C)CC[C@]3(C)[C@H](CC[C@@H]4[C@@]5(C)CC[C@H](O)C(C)(C)[C@@H]5CC[C@]43C)[C@@H]12 [LUPEOL] | 80%
C=C(C)[C@@H]1CC[C@]2(CO)CC[C@]3(C)[C@H](CC[C@@H]4[C@@]5(C)CC[C@H](OC(C)=O)C(C)(C)[C@@H]5CC[C@]43C)[C@@H]12 | 80%
C=C(C)[C@@H]1CC[C@]2(C(=O)O)CC[C@]3(C)[C@H](CC[C@@H]4[C@@]5(C)CC[C@H](O)C(C)(C)[C@@H]5CC[C@]43C)[C@@H]12 [BETULINIC ACID] | 80%
C=C(C=O)[C@@H]1CC[C@]2(C(=O)O)CC[C@]3(C)[C@H](CC[C@@H]4[C@@]5(C)CC[C@H](O)C(C)(C)[C@@H]5CC[C@]43C)[C@@H]12 | 80%

system: LLC-PK1; assay: Renoprotective activity in pig LLC-PK1 cells assessed as reduction in cisplatin-induced toxicity at 125 uM preincubated for 2 hrs followed by cisplatin challenge for 24 hrs by MTT assay; assay type: functional, Sus scrofa; parameters: scale not given: the % may be the effect or the level left; conditions: not given

SMILES | Activity
C=C(C)[C@@H]1CC[C@]2(C)CC[C@]3(C)[C@H](CC[C@@H]4[C@@]5(C)CC[C@H](O)C(C)(C)[C@@H]5CC[C@]43C)[C@@H]12 [LUPEOL] | 80%
C=C(C)[C@@H]1CC[C@]2(CO)CC[C@]3(C)[C@H](CC[C@@H]4[C@@]5(C)CC[C@H](OC(C)=O)C(C)(C)[C@@H]5CC[C@]43C)[C@@H]12 | 80%
C=C(C)[C@@H]1CC[C@]2(C(=O)O)CC[C@]3(C)[C@H](CC[C@@H]4[C@@]5(C)CC[C@H](O)C(C)(C)[C@@H]5CC[C@]43C)[C@@H]12 [BETULINIC ACID] | 80%
C=C(C=O)[C@@H]1CC[C@]2(C(=O)O)CC[C@]3(C)[C@H](CC[C@@H]4[C@@]5(C)CC[C@H](O)C(C)(C)[C@@H]5CC[C@]43C)[C@@H]12 | 80%

system: LLC-PK1; assay: Inhibition of cisplatin-induced p38 phosphorylation in pig LLC-PK1 cells at 125 uM preincubated for 2 hrs followed by cisplatin challenge for 24 hrs by western blot analysis; assay type: cell-based; conditions: Sus scrofa

SMILES | inhibition
C=C(C)[C@@H]1CC[C@]2(C)CC[C@]3(C)[C@H](CC[C@@H]4[C@@]5(C)CC[C@H](O)C(C)(C)[C@@H]5CC[C@]43C)[C@@H]12 [LUPEOL] | Active
C=C(C)[C@@H]1CC[C@]2(CO)CC[C@]3(C)[C@H](CC[C@@H]4[C@@]5(C)CC[C@H](OC(C)=O)C(C)(C)[C@@H]5CC[C@]43C)[C@@H]12 | Active
C=C(C)[C@@H]1CC[C@]2(C(=O)O)CC[C@]3(C)[C@H](CC[C@@H]4[C@@]5(C)CC[C@H](O)C(C)(C)[C@@H]5CC[C@]43C)[C@@H]12 [BETULINIC ACID] | Active
C=C(C=O)[C@@H]1CC[C@]2(C(=O)O)CC[C@]3(C)[C@H](CC[C@@H]4[C@@]5(C)CC[C@H](O)C(C)(C)[C@@H]5CC[C@]43C)[C@@H]12 | Active

system: LLC-PK1; assay: Renoprotective activity in pig LLC-PK1 cells assessed as reduction in cisplatin-induced toxicity preincubated for 2 hrs followed by cisplatin challenge for 24 hrs by MTT assay; assay type: functional, cell-based; conditions: Sus scrofa

SMILES | Activity
C=C(C)[C@@H]1CC[C@]2(C(=O)O)CC[C@]3(C)[C@H](CC[C@@H]4[C@@]5(C)C[C@@H](OC(=O)/C=C/c6ccc(O)cc6)[C@H](O)C(C)(C)[C@@H]5CC[C@]43C)[C@@H]12 | Dose-dependent effect
C=C(C)[C@@H]1CC[C@]2(C)CC[C@]3(C)[C@H](CC[C@@H]4[C@@]5(C)CC[C@H](O)C(C)(C)[C@@H]5CC[C@]43C)[C@@H]12 [LUPEOL] | Dose-dependent effect
C=C(C)[C@@H]1CC[C@]2(C(=O)O)CC[C@]3(C)[C@H](CC[C@@H]4[C@@]5(C)C[C@@H](O)[C@H](O)C(C)(C)[C@@H]5CC[C@]43C)[C@@H]12 | Dose-dependent effect
C=C(C)[C@@H]1CC[C@]2(CO)CC[C@]3(C)[C@H](CC[C@@H]4[C@@]5(C)CC[C@H](OC(C)=O)C(C)(C)[C@@H]5CC[C@]43C)[C@@H]12 | Dose-dependent effect
C=C(C)[C@@H]1CC[C@]2(C(=O)O)CC[C@]3(C)[C@H](CC[C@@H]4[C@@]5(C)CC[C@H](O)C(C)(C)[C@@H]5CC[C@]43C)[C@@H]12 [BETULINIC ACID] | Dose-dependent effect
C=C(C=O)[C@@H]1CC[C@]2(C(=O)O)CC[C@]3(C)[C@H](CC[C@@H]4[C@@]5(C)CC[C@H](O)C(C)(C)[C@@H]5CC[C@]43C)[C@@H]12 | Dose-dependent effect
C=C(C)[C@@H]1CC[C@]2(C(=O)OC)CC[C@]3(C)[C@H](CC[C@@H]4[C@@]5(C)CC[C@@H](O)C(C)(C)[C@@H]5CC[C@]43C)[C@@H]12 | Dose-dependent effect

system: LLC-PK1; assay: Renoprotective activity in pig LLC-PK1 cells assessed as reduction in cisplatin-induced nucleus break-up at 125 uM preincubated for 2 hrs followed by cisplatin challenge for 24 hrs by phase-contrast microscopic analysis; assay type: functional, cell-based; conditions: Sus scrofa

SMILES | Activity
C=C(C)[C@@H]1CC[C@]2(C)CC[C@]3(C)[C@H](CC[C@@H]4[C@@]5(C)CC[C@H](O)C(C)(C)[C@@H]5CC[C@]43C)[C@@H]12 [LUPEOL] | Active
C=C(C)[C@@H]1CC[C@]2(CO)CC[C@]3(C)[C@H](CC[C@@H]4[C@@]5(C)CC[C@H](OC(C)=O)C(C)(C)[C@@H]5CC[C@]43C)[C@@H]12 | Active
C=C(C)[C@@H]1CC[C@]2(C(=O)O)CC[C@]3(C)[C@H](CC[C@@H]4[C@@]5(C)CC[C@H](O)C(C)(C)[C@@H]5CC[C@]43C)[C@@H]12 [BETULINIC ACID] | Active
C=C(C=O)[C@@H]1CC[C@]2(C(=O)O)CC[C@]3(C)[C@H](CC[C@@H]4[C@@]5(C)CC[C@H](O)C(C)(C)[C@@H]5CC[C@]43C)[C@@H]12 | Active

system: LLC-PK1; assay: Renoprotective activity in pig LLC-PK1 cells assessed as reduction in cisplatin-induced cell shrank at 125 uM preincubated for 2 hrs followed by cisplatin challenge for 24 hrs by phase-contrast microscopic analysis; assay type: functional, cell-based; conditions: Sus scrofa

SMILES | Activity
C=C(C)[C@@H]1CC[C@]2(C)CC[C@]3(C)[C@H](CC[C@@H]4[C@@]5(C)CC[C@H](O)C(C)(C)[C@@H]5CC[C@]43C)[C@@H]12 [LUPEOL] | Active
C=C(C)[C@@H]1CC[C@]2(CO)CC[C@]3(C)[C@H](CC[C@@H]4[C@@]5(C)CC[C@H](OC(C)=O)C(C)(C)[C@@H]5CC[C@]43C)[C@@H]12 | Active
C=C(C)[C@@H]1CC[C@]2(C(=O)O)CC[C@]3(C)[C@H](CC[C@@H]4[C@@]5(C)CC[C@H](O)C(C)(C)[C@@H]5CC[C@]43C)[C@@H]12 [BETULINIC ACID] | Active
C=C(C=O)[C@@H]1CC[C@]2(C(=O)O)CC[C@]3(C)[C@H](CC[C@@H]4[C@@]5(C)CC[C@H](O)C(C)(C)[C@@H]5CC[C@]43C)[C@@H]12 | Active

system: LLC-PK1; assay: Renoprotective activity against cisplatin induced toxicity in pig LLC-PK1 cells assessed as reduction in apoptotic cells at 125 uM preincubated for 2 hrs followed by cisplatin challenge for 24 hrs annexin-V-FITC and propidium iodide staining based flow cytometry; assay type: functional, cell-based; conditions: Sus scrofa

SMILES | Activity
C=C(C)[C@@H]1CC[C@]2(C)CC[C@]3(C)[C@H](CC[C@@H]4[C@@]5(C)CC[C@H](O)C(C)(C)[C@@H]5CC[C@]43C)[C@@H]12 [LUPEOL] | Active
C=C(C)[C@@H]1CC[C@]2(CO)CC[C@]3(C)[C@H](CC[C@@H]4[C@@]5(C)CC[C@H](OC(C)=O)C(C)(C)[C@@H]5CC[C@]43C)[C@@H]12 | Active
C=C(C)[C@@H]1CC[C@]2(C(=O)O)CC[C@]3(C)[C@H](CC[C@@H]4[C@@]5(C)CC[C@H](O)C(C)(C)[C@@H]5CC[C@]43C)[C@@H]12 [BETULINIC ACID] | Active
C=C(C=O)[C@@H]1CC[C@]2(C(=O)O)CC[C@]3(C)[C@H](CC[C@@H]4[C@@]5(C)CC[C@H](O)C(C)(C)[C@@H]5CC[C@]43C)[C@@H]12 | Active

system: LLC-PK1; assay: Inhibition of cisplatin-induced ERK phosphorylation in pig LLC-PK1 cells at 125 uM preincubated for 2 hrs followed by cisplatin challenge for 24 hrs by western blot analysis; assay type: cell-based; conditions: Sus scrofa

SMILES | inhibition
C=C(C)[C@@H]1CC[C@]2(C)CC[C@]3(C)[C@H](CC[C@@H]4[C@@]5(C)CC[C@H](O)C(C)(C)[C@@H]5CC[C@]43C)[C@@H]12 [LUPEOL] | Active
C=C(C)[C@@H]1CC[C@]2(CO)CC[C@]3(C)[C@H](CC[C@@H]4[C@@]5(C)CC[C@H](OC(C)=O)C(C)(C)[C@@H]5CC[C@]43C)[C@@H]12 | Active
C=C(C)[C@@H]1CC[C@]2(C(=O)O)CC[C@]3(C)[C@H](CC[C@@H]4[C@@]5(C)CC[C@H](O)C(C)(C)[C@@H]5CC[C@]43C)[C@@H]12 [BETULINIC ACID] | inactive
C=C(C=O)[C@@H]1CC[C@]2(C(=O)O)CC[C@]3(C)[C@H](CC[C@@H]4[C@@]5(C)CC[C@H](O)C(C)(C)[C@@H]5CC[C@]43C)[C@@H]12 | Active
